Values quoted from earlier work, collected in US10653742B2, “Anti-inflammatory use of liquid phytocomplexes from olive” (FATTORIA LA VIALLA DI GIANNI, ANTONIO E BANDINO LO …, priority 2013, dated 2020).

Details: also in high concentrations

OCCc1ccc(O)c(O)c1 [Hydroxytyrosol]
toxic effect on in vivo administration: no toxic effect
